Values of other authors as cited in patent US7195778B2, “Drug delivery system for zero order, zero order-biphasic, ascending or descending drug delivery” (Teva Pharmaceutical Industries Ltd., priority 2001, dated 2007).
Structures can show the parent of a compound that is named as a salt. Where two headings read alike, the source gives them in different places.

COC(=O)C(c1ccccc1)C1CCCCN1 (stereo not shown) [methylphenidate HCl]
drug excreted (adults): 80% | drug excreted (children): 67% | time to peak (children, immediate release): 1.9 h | time to peak, range (children, immediate release): 0.3 to 4.4 h | primary adverse events (chronic dosing): nervousness, insomnia and appetite suppression | pharmacokinetic half-life (immediate release): 2 to 3 h | AD/HD patients responding positively (reports): 70–90%
